pIC50: −log10 of the molar value.

The subject of one assay is L1210. Briefly: Antiproliferative activity against mouse L1210 cells by CCK-8 assay. The assay is classed as functional, cell-based. (Tetrazolium assays rely on reduction of a dye to a coloured formazan, in cell work by metabolically active cells.)
The next assay deals with MCF7. Briefly: Antiproliferative activity against human MCF7 cells by CCK-8 assay. The assay is classed as functional, cell-based.

As a reminder, the pIC50 is the negative decadic logarithm of the IC50, by convention in mol/L. As for `C(=N\c1nnc(SCc2c[se]c(-c3ccccc3)n2)s1)/c1ccccc1`, the negative-log IC50 (pIC50) with L1210 was 4.33; in the assay with MCF7, 4.59.
For `Fc1ccc(/C=N/c2nnc(SCc3c[se]c(-c4ccccc4)n3)s2)cc1`, the pIC50 with L1210 is 4.24; in the assay with MCF7, 4.99.
Consider `Clc1ccc(/C=N/c2nnc(SCc3c[se]c(-c4ccccc4)n3)s2)cc1`, for which the pIC50 in the assay with L1210 was 4.30; with MCF7, 5.40.
For `Brc1ccc(/C=N/c2nnc(SCc3c[se]c(-c4ccccc4)n3)s2)cc1`, in that order: 4.33 and 4.83.
The corresponding values for `Oc1ccccc1/C=N/c1nnc(SCc2c[se]c(-c3ccccc3)n2)s1` are 4.41 and 4.82.
With `Oc1ccc(/C=N/c2nnc(SCc3c[se]c(-c4ccccc4)n3)s2)cc1`, the values for the negative logarithm of the IC50 (pIC50) in the assay with L1210 and in the assay on MCF7 were under 4.00 and 4.51, respectively.
Consider `Oc1ccc(/C=N/c2nnc(SCc3c[se]c(-c4ccccc4)n3)s2)c(O)c1`, for which the pIC50 in the assay with L1210 is 4.21; in the assay with MCF7 it was 5.07.
Regarding `COc1cc(/C=N/c2nnc(SCc3c[se]c(-c4ccccc4)n3)s2)ccc1O`, the pIC50 with L1210 is under 4.00; in the assay on MCF7, 4.82.
For `Cc1ccc(/C=N/c2nnc(SCc3c[se]c(-c4ccccc4)n3)s2)cc1`, in that order: 4.23 and 5.12.
`CN(C)c1ccc(/C=N/c2nnc(SCc3c[se]c(-c4ccccc4)n3)s2)cc1`: the pIC50 in the assay on L1210 was under 4.00; with MCF7, 4.10.
As to `O=[N+]([O-])c1ccc(/C=N/c2nnc(SCc3c[se]c(-c4ccccc4)n3)s2)cc1`, the results for the pIC50 in the assay with L1210 and in the assay on MCF7 were under 4.00 and 4.31, respectively.
`O=C(O)c1c[se]c(-c2ccccc2)n1`: the pIC50 in the assay on L1210 was 4.22; in the assay on MCF7, 4.78.

These data come from ChEMBL document CHEMBL3091426, “Synthesis and antitumor-evaluation of 1,3-selenazole-containing 1,3,4-thiadiazole derivatives” (Bioorg Med Chem Lett, 2013).
